# Experiments:
# Type in all cases: biochemical
# [1] = tested on: collagenase from Clostridium haemolyticum; assay: Inhibition of collagenase activity (FALGPA substrate); details: 100 µg/mL (extract in glycerol; EGCG standard at 100 µg/mL)
# Protocol: The enzymatic method for the determination of collagenase (EC 3.4.24.3) using FALGPA (N-(3-[2-furyl]acryloyl)-Leu-Gly-Pro-Ala) as substrate for collagenase, which was dissolved in 50 mM Tricine buffer (pH 7.5) at an initial concentration of 0.8 U/mL, was used for the study. FALGPA was dissolved in Tricine buffer to 2 mM. Various concentrations were prepared from the lyophilised extract of Example 1 by dissolving in glycerol and incubating with the enzyme for 15 minutes before adding the substrate to start the reaction. The final reaction mixture (150 µL) contained Tricine buffer, 0.8 mM of FALGPA, 0.1 U of collagenase and the extract at appropriate concentration. Epigallocatechin gallate (EGCG; Supelco) at the concentration of 100 µg/mL was used as a standard. The absorbance at wavelength of λ=345 nm was measured immediately after substrate addition and then continuously for 20 minutes.
# [2] = target: T1, porcine pancreatic elastase (Sus scrofa, UniProt P00772); assay: Inhibition of elastase activity (AAAPVN substrate); details: 100 µg/mL (extract in glycerol; EGCG standard at 100 µg/mL)
# T1 construct: purchased Sigma-Aldrich
# Protocol: The method using porcine pancreatic elastase (PE - E.C.3.4.21.36; Sigma-Aldrich) was used for the study, which was dissolved in distilled water to prepare a stock solution with a concentration of 3.33 mg/mL. The substrate […] (AAAPVN; Sigma-Aldrich) was dissolved in 1.6 mM Tris-HCl buffer (pH 8.0). The extract of Example 1 dissolved in glycerol (concentrations of 5-100 µg/mL) was incubated with the enzyme for 15 minutes before adding the substrate to start the reaction. The final reaction mixture in the well of the 96-well plate (total volume 200 µL) contained buffer, 0.8 mM of AAAPVN, 1 µg/mL of elastase and 25 µL of extract at the appropriate concentration. Epigallocatechin gallate (EGCG; Supelco) at the concentration of 100 µg/mL was used as a standard. Negative controls were performed using water. Absorbance values were measured immediately after substrate addition and then after 20 minutes at wavelength of λ=410 nm.
# soybean lipoxygenase = target: T2, soybean lipoxygenase (Glycine max, UniProt P08170); assay: Anti-inflammatory properties, lipoxygenase inhibition; details: positive control, concentration not given
# T2 construct: purchased Sigma-Aldrich Chemie GmbH, Steinheim, Germany
# T2 sequence (P08170 1-839): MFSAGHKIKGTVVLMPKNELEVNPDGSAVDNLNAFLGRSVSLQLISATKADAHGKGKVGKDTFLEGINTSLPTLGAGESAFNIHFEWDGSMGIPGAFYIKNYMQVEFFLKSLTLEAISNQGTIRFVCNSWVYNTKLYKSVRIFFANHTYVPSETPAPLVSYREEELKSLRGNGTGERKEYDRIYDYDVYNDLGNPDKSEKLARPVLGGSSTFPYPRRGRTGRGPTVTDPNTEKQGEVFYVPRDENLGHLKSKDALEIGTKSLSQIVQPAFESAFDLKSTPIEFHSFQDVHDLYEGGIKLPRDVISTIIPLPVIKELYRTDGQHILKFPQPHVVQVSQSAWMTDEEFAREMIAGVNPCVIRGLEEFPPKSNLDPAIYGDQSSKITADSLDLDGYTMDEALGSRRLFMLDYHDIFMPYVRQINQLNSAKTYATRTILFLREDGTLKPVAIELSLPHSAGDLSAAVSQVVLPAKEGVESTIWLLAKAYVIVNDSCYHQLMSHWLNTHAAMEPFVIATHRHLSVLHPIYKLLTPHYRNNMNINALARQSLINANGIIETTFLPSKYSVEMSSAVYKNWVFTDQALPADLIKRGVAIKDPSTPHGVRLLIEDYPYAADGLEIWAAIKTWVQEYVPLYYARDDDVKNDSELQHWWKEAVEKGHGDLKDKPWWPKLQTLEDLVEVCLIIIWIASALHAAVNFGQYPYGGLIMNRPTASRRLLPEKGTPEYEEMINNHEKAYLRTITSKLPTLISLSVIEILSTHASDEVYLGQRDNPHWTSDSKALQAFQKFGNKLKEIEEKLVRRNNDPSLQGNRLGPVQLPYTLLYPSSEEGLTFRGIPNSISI
# Protocol: The study of anti-inflammatory activity of the extract of Example 1 was assessed on the basis of lipoxygenase inhibition using a spectrophotometric method in 96-well plates. For this purpose, 100 µL of various concentrations of extract solution in potassium phosphate buffer (pH = 8.5), 50 µL of soybean lipoxygenase solution (LOX; 167 U/mL; Sigma-Aldrich Chemie GmbH, Steinheim, Germany) in potassium phosphate buffer (pH = 8.5), and finally 50 µL of linoleic acid solution (LA; 134 µM; Sigma-Aldrich Chemie GmbH, Steinheim, Germany) were added to the wells. Changes in absorbance at 234 nm were then measured for a period of 25 minutes with intervals of 30 seconds. Indomethacin (Sigma-Aldrich) was used as a positive control. The activity of the extract was calculated as the percentage of LOX enzyme activity (% of activity) in relation to the maximal activity (negative control - solution without studied extract) after subtracting the absorbance of the extract at 234 nm in all cases. Absorbance values at the 10th minute of the reaction were used for the calculations.
# fungal tyrosinase = assay: Inhibition of fungal tyrosinase activity (L-DOPA substrate); details: standard at 100 µL/mL
# Protocol: The tyrosinase (EC 1.14.18.1, 25 KU, fungal tyrosinase, Sigma-Aldrich) inhibitory effect was measured using L-3,4-dihydroxyphenylalanine (L-DOPA, Supelco) as a substrate. To perform it, various concentrations of the studied extract (20 µL), tyrosinase solution (200 U/mL, 40 µL) and phosphate buffer (100 µL, 50 mM, pH 6.5) were applied to a 96-well plate, and then incubated for 15 minutes at 25°C. The reaction was started with the addition of L-DOPA (40 µL) and incubated for a further 15 minutes, after which the absorbance was measured at wavelength of λ=475 nm compared to the control without the inhibitor. In the control sample, representing 100% of enzyme activity, phosphate buffer was added instead of the extract. Tyrosinase inhibitory activity was determined by comparing the enzyme activity in samples with and without the assessed inhibitor. Kojic acid (Supelco) at a concentration of 100 µL/mL was used as a standard.
# T1 sequence (P00772 27-266): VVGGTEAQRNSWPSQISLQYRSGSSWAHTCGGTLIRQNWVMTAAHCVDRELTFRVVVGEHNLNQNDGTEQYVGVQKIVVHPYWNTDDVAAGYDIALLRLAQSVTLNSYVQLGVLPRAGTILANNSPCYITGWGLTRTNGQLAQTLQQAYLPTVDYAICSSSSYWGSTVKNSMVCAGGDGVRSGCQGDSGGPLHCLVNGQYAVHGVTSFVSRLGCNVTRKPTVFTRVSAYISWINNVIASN
compound,measurement,setting,value
"O=C(O[C@@H]1Cc2c(O)cc(O)cc2O[C@@H]1c1cc(O)c(O)c(O)c1)c1cc(O)c(O)c(O)c1 [EGCG, Epigallocatechin gallate]",Collagenase inhibition (%),[1],84.45%
same,inhibition at 100 µg/mL,[2],92.2%
COc1ccc2c(c1)c(CC(=O)O)c(C)n2C(=O)c1ccc(Cl)cc1 [Indomethacin],Inhibition of LOX activity [%],soybean lipoxygenase,99.80%
O=c1cc(CO)occ1O [kojic acid],Tyrosinase inhibition [%],fungal tyrosinase,61.17%
